Measured values as given in patent US20250270246A1, “LINCOSAMIDES AND USES THEREOF” (President and Fellows of Harvard College, priority 2022, published 2025).
Where a name gives a salt, the structure may show the parent alone. Read-outs that look alike come from different tables or passages of the source.

Legend:
Experiment in all cases: MIC by broth microdilution (CLSI)
Format in all cases: cell-based
[1] = tested on: E. coli lptD mutant; settings: Escherichia coli, 24 h, read-out: MIC E. coli lptD mutant, lptD mutant / ΔlptD mutant; CaMHB, 24 h incubation
Outline: (§1)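 MIC read as the lowest compound level with no visible growth at 24 h (μg/mL). CLSI microdilution; CaMHB (Chelex 100-treated for P. aeruginosa); 5×10^5 CFU/mL; range 64-0.06 μg/mL; DMSO 2.5% final.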

[2] = tested on: K. pneumoniae JMI-991193; settings: Klebsiella pneumoniae, JMI991193, 24 h, read-out: MIC K. pneumoniae JMI-991193
Outline: as §1

[3] = tested on: S. aureus Clinical (cfr); settings: Staphylococcus aureus, 24 h, read-out: MIC S. aureus Clinical (cfr)
Outline: as §1

[4] = tested on: A. baumannii ATCC 19606 (HAV#010); settings: Acinetobacter baumannii, ATCC19606, 24 h, read-out: MIC A. baumannii ATCC 19606
Outline: as §1

[5] = tested on: S. aureus MMX 3035; settings: Staphylococcus aureus, MMX3035, 24 h, read-out: MIC S. aureus MMX 3035
Outline: as §1

[6] = tested on: E. faecalis ATCC 29212 (HAV#005); settings: Enterococcus faecalis, ATCC29212, 24 h, read-out: MIC E. faecalis ATCC 29212
Outline: as §1

[7] = tested on: S. pneumoniae c-ermB; settings: Streptococcus pneumoniae, 24 h, read-out: MIC S. pneumoniae c-ermB
Outline: as §1

[8] = tested on: E. coli ATCC 25922 (HAV#006); settings: Escherichia coli, ATCC25922, 24 h, read-out: MIC E. coli ATCC 25922
Outline: as §1

[9] = tested on: E. coli ΔtolC; settings: Escherichia coli, 24 h, read-out: MIC E. coli ΔtolC, ΔtolC; CaMHB, 24 h incubation
Outline: as §1

[10] = tested on: S. aureus ATCC 29213 (HAV#001); settings: Staphylococcus aureus, ATCC29213, 24 h, read-out: MIC S. aureus ATCC 29213
Outline: as §1

[11] = tested on: E. faecium JMI-990536; settings: Enterococcus faecium, JMI990536, 24 h, read-out: MIC E. faecium JMI-990536
Outline: as §1

[12] = tested on: S. pyogenes HAV#033, c-ermB; settings: Streptococcus pyogenes, read-out: MIC S. pyogenes HAV#033, c-ermB
Outline: as §1

[13] = tested on: S. aureus HAV#031, c-ermA; settings: Staphylococcus aureus, read-out: MIC S. aureus HAV#031, c-ermA
Outline: as §1

[14] = tested on: K. pneumoniae HAV#402, FQ-R; settings: Klebsiella pneumoniae, read-out: MIC K. pneumoniae HAV#402, FQ-R
Outline: as §1

[15] = tested on: E. coli HAV#038, ΔTolC; settings: Escherichia coli, 24 h, read-out: MIC E. coli HAV#038, ΔTolC
Outline: as §1

[16] = tested on: E. coli HAV#040, LptD; settings: Escherichia coli, 24 h, read-out: MIC E. coli HAV#040, LptD
Outline: as §1

[17] = tested on: K. oxytoca HAV#450; Clinical; settings: Klebsiella oxytoca, read-out: MIC K. oxytoca HAV#450
Outline: as §1

[18] = tested on: E. faecium HAV#318, VRE; clinical; settings: Enterococcus faecium, read-out: MIC E. faecium HAV#318, VRE
Outline: as §1

[19] = tested on: S. aureus HAV#216, cfr; settings: Staphylococcus aureus, read-out: MIC S. aureus HAV#216, cfr
Outline: as §1

[20] = JMI-991193, CaMHB, 24 h incubation
[21] = Clinical (cfr), CaMHB, 24 h incubation
[22] = HAV#010, ATCC 19606, CaMHB, 24 h incubation
[23] = MMX 3035, CaMHB, 24 h incubation
[24] = HAV#005, ATCC 29212, CaMHB, 24 h incubation
[25] = HAV#006, ATCC 25922, CaMHB, 24 h incubation
[26] = HAV#001, ATCC 29213, CaMHB, 24 h incubation
[27] = JMI-990536, CaMHB, 24 h incubation

| SMILES | MIC [1] [µg/mL] | MIC [4, 22] [µg/mL] | MIC [6, 24] [µg/mL] | MIC [7] [µg/mL] | MIC [8, 25] [µg/mL] | MIC [9] [µg/mL] | MIC [10, 26] [µg/mL] | MIC ([12]; 24 h) [µg/mL] | MIC [4] [µg/mL] | MIC ([13]; 24 h) [µg/mL] | MIC ([14]; 24 h) [µg/mL] | MIC [15] [µg/mL] | MIC [6] [µg/mL] | MIC [8] [µg/mL] | MIC [16] [µg/mL] | MIC [10] [µg/mL] | MIC ([17]; 24 h) [µg/mL] | MIC ([18]; 24 h) [µg/mL] | MIC ([19]; 24 h) [µg/mL] | also measured |
| --- | --- | --- | --- | --- | --- | --- | --- | --- | --- | --- | --- | --- | --- | --- | --- | --- | --- | --- | --- | --- |
| CC(C)C[C@@H]1CCO[C@@H]2[C@H](CN[C@@H]2C(=O)N[C@@H]2C/C=C\C[C@@H](CO)S[C@H]3O[C@H]2[C@H](O)[C@H](O)[C@H]3O)C1 [FSA1606034, (4S,5aS,8S,8aR)-4-isobutyl-N-((1R,3S,8R,9R,10R,11S,12R,Z)-10,11,12-trihydroxy-3-(hydroxymethyl)-13-oxa-2-thiabicyclo[7.3.1]tridec-5-en-8-yl) octahydro-2H-oxepino[2,3-c]pyrrole-8-carboxamide hydrochloride salt] | 8 | > 64 | 2 | 16 | 64 | 2 | 1 | – | – | – | – | – | – | – | – | – | – | – | – | MIC [2, 20]: > 64 µg/mL; MIC [3, 21]: > 64 µg/mL; MIC [5, 23]: 64 µg/mL; MIC [11, 27]: > 64 µg/mL |
| CC(C)C[C@@H]1CCO[C@@H]2[C@H](CN[C@@H]2C(=O)N[C@@H]2C/C=C\CCS[C@H]3O[C@H]2[C@H](O)[C@H](O)[C@H]3O)C1 [FSA1507013, (4S,5aS,8S,8aR)-4-isobutyl-8-(((1R,8R,9R,10R,11S,12R,Z)-10,11,12-trihydroxy-13-oxa-2-thiabicyclo[7.3.1]tridec-5-en-8-yl)carbamoyl) octahydro-2H-oxepino[2,3-c]pyrrol-7-ium formate] | – | – | – | – | – | – | – | 0.5 | 2 | 4 | 8 | 0.125 | 0.125 | 2 | 0.5 | 0.125 | 2 | – | – | – |
| CC(C)C[C@@H]1CCO[C@@H]2[C@@H](C1)CN(C)[C@@H]2C(=O)N[C@H]1C2OC(SCC/C=C\[C@H]1C)C(O)C(O)C2O (single isomer, unassigned) [FSA1508001, formate] | – | – | – | – | – | – | – | 0.25 | 2 | 0.5 | 64 | 0.25 | 0.125 | 8 | 0.25 | 0.25 | 16 | 0.25 | 1 | – |
| CC(C)C[C@@H]1CCO[C@@H]2[C@H](CN[C@@H]2C(=O)N[C@H]2C3OC(SCC/C=C\[C@H]2C)C(O)C(O)C3O)C1 (single isomer, unassigned) [FSA1507066, formate] | – | – | – | – | – | – | – | 0.125 | 2 | 0.5 | 16 | 0.125 | ≤ 0.06 | 4 | 0.25 | ≤ 0.06 | 4 | 0.25 | 0.5 | – |
| CC(C)C[C@@H]1CCO[C@@H]2[C@@H](C1)CN(C)[C@@H]2C(=O)N[C@@H]1C/C=C\CCS[C@H]2O[C@H]1[C@H](O)[C@H](O)[C@H]2O [FSA1508003, (4S,5aS,8S,8aR)-4-isobutyl-7-methyl-8-(((1R,8R,9R,10R,11S,12R,Z)-10,11,12-trihydroxy-13-oxa-2-thiabicyclo[7.3.1]tridec-5-en-8-yl)carbamoyl) octahydro-2H-oxepino[2,3-c]pyrrol-7-ium formate] | – | – | – | – | – | – | – | 2 | 2 | 2 | 16 | 0.25 | 0.125 | 4 | 0.25 | 0.125 | 8 | 1 | 8 | – |
| CC(C)C[C@@H]1CCO[C@@H]2[C@H](CN[C@@H]2C(=O)N[C@H]2C3OC(SCC/C=C/[C@@H]2C)C(O)C(O)C3O)C1 (single isomer, unassigned) [FSA1507068, formate salt] | – | 4 | 0.125 | – | 4 | – | ≤ 0.06 | – | – | – | – | 0.5 | – | – | 0.5 | – | – | – | – | MIC ([12]; c-ermB, CaMHB, 24 h incubation): 0.25 µg/mL; MIC ([13]; c-ermA, CaMHB, 24 h incubation): 0.5 µg/mL; MIC ([14]; FQ-R, CaMHB, 24 h incubation): 8 µg/mL; MIC ([18]; CaMHB, 24 h incubation): 0.5 µg/mL; MIC ([19]; cfr, CaMHB, 24 h incubation): 2 µg/mL; MIC ([17]; CaMHB, 24 h incubation): 8 µg/mL |
| CC(C)C[C@@H]1CCO[C@@H]2[C@H](CN[C@@H]2C(=O)N[C@H]2[C@H]3O[C@H](S[C@H](c4cn(-c5cccc(Cl)c5)nn4)C/C=C\[C@H]2C)[C@H](O)[C@@H](O)[C@H]3O)C1 [FSA1609015, (4S,5aS,8S,8aR)—N-((1R,3S,7R,8R,9R,10R,11S,12R,Z)-3-(1-(3-chlorophenyl)-1H-1,2,3-triazol-4-yl)-10,11,12-trihydroxy-7-methyl-13-oxa-2-thiabicyclo[7.3.1]tridec-5-en-8-yl)-4-isobutyloctahydro-2H-oxepino[2,3-c]pyrrole-8-carboxamide formate salt] | 2 | – | – | 0.25 | – | 2 | – | – | 8 | – | – | – | 2 | 8 | – | 1 | – | – | – | MIC [2]: 32 µg/mL; MIC [3]: 2 µg/mL; MIC [5]: 2 µg/mL; MIC [11]: 0.5 µg/mL |
| CC(C)C[C@@H]1CCO[C@@H]2[C@H](CN[C@@H]2C(=O)N[C@@H]2C/C=C\C[C@H](CO)S[C@H]3O[C@H]2[C@H](O)[C@H](O)[C@H]3O)C1 [FSA1606033, (4S,5aS,8S,8aR)-4-isobutyl-N-((1R,3R,8R,9R,10R,11S,12R,Z)-10,11,12-trihydroxy-3-(hydroxymethyl)-13-oxa-2-thiabicyclo[7.3.1]tridec-5-en-8-yl) octahydro-2H-oxepino[2,3-c]pyrrole-8-carboxamide hydrochloride salt] | 4 | 64 | 1 | 4 | 16 | 1 | 1 | – | – | – | – | – | – | – | – | – | – | – | – | MIC [2, 20]: > 64 µg/mL; MIC [3, 21]: 32 µg/mL; MIC [5, 23]: 16 µg/mL; MIC [11, 27]: 16 µg/mL |
